# Experimental data from patent publication US11993598B2, “Compounds for inhibiting EGFR kinase, preparation methods and uses thereof” (WIGEN BIOMEDICINE TECHNOLOGY (SHANGHAI) CO., LTD., priority 2019, dated 2024).
# What was measured:
# [1] = system: A431 (wild type EGFR, skin cancer); test: Cell proliferation assay (MTT); format: cell-based; settings: Homo sapiens, A-431, 72 h, three days
# Procedure: (§1) A431 cells, H1975 and Ba/F3 cells expressing various mutant EGFR were harvested from exponential phase cultures and seeded in 96-well plates at a cell density of 3000 per well for A431 and H1975, and 10000 per well for Ba/F3 cells. After overnight attachment, compounds were 3-fold serially diluted and applied to cells at 30 μM, 10 μM, 3 μM, 1 μM, 0.3 μM, […], 0.03 μM and 0.01 μM with triplicates, and incubated for three days. 20 μL of 5 mg/mL MTT was added afterwards followed by the further addition of 50 μL 10% SDS together with 5% isobutyl alcohol in 0.01 mol/L HCl. The plates were incubated overnight. Absorbance (A) at a wavelength of 570 nm was quantified. Percentage of inhibition was used for the calculation of IC50 based on the bliss method.
# EGFR-WT = EGFR-WT (Homo sapiens, UniProt P00533); test: Wild-type EGFR biochemical activity assay (HTRF)
# Procedure: (§2) Assay 1: Wild-type EGFR, HER2 and HER4, and mutant EGFR biochemical activity assay
# (§3) 10 nL of Serially diluted compounds were transferred to assay plates using the labcyte Echo 550, and 5 uL of 2× enzymes in assay buffer were subsequently dispensed. The assay plate was covered with an adhesive plate seal, and briefly spinned for 30 s at 1000 g. 5 uL of 2× TK-substrate-biotin and ATP mixed in assay buffer were added.
# (§4) IC50 was calculated and analyzed using a 4 parametric logistic model.
# EGFR D770-N771insNPG = EGFR D770-N771insNPG (Homo sapiens, UniProt P00533, INS770NPG); test: Mutant EGFR biochemical activity assay (HTRF)
# Sequence of EGFR D770-N771insNPG (P00533 with tags, fused parts or gaps INS770NPG limits assumed): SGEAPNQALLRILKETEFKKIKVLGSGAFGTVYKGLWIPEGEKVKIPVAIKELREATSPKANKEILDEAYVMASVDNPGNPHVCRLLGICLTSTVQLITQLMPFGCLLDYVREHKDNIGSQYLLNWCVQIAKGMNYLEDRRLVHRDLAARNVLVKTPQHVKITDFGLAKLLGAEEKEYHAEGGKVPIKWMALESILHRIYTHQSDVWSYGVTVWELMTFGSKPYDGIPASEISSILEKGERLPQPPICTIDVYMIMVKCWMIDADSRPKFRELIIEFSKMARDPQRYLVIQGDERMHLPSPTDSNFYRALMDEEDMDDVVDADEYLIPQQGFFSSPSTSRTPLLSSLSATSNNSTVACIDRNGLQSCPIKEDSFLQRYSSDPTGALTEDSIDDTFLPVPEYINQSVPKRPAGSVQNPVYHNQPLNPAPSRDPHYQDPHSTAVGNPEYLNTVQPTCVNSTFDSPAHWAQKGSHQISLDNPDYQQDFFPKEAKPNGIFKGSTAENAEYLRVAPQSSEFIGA
# Procedure: as §2, §3, §4
# EGFR A763_Y764insFHEA = EGFR A763_Y764insFHEA (Homo sapiens, UniProt P00533, INS763FHEA); test: Mutant EGFR biochemical activity assay (HTRF); settings: read-out: IC50 (nM) EGFR A763_Y764 insFHEA
# Sequence of EGFR A763_Y764insFHEA (P00533 with tags, fused parts or gaps INS763FHEA limits assumed): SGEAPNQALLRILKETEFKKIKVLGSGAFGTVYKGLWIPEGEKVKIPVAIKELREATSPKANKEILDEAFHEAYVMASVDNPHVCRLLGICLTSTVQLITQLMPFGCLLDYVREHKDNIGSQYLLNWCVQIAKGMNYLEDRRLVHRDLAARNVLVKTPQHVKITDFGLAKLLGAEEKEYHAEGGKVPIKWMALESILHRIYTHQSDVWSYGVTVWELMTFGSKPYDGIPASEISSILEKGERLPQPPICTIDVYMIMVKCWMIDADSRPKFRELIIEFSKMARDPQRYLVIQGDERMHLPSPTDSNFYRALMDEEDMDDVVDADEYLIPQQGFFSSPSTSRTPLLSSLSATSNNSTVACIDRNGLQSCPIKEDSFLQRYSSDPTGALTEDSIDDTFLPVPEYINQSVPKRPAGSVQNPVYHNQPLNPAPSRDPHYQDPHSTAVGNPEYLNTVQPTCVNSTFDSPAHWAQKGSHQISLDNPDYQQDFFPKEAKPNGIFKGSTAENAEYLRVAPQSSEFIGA
# Procedure: as §2, §3, §4
# EGFR T790M = EGFR T790M (Homo sapiens, UniProt P00533, T790M); test: Mutant EGFR biochemical activity assay (HTRF)
# Procedure: as §2, §3, §4
# [2] = molecular target: EGFR D770_N771insNPG T790M (Homo sapiens, UniProt P00533, INS770NPG/T790M); test: Mutant EGFR biochemical activity assay (HTRF); settings: read-out: IC50 (nM) EGFR D770_N771 insNPG T790M
# Procedure: as §2, §3, §4
# EGFR D770GY = EGFR D770GY (Homo sapiens, UniProt P00533, D770Y/INS769G); test: Mutant EGFR biochemical activity assay (HTRF)
# Procedure: as §2, §3, §4
# EGFR L792H = EGFR L792H (Homo sapiens, UniProt P00533, L792H); test: Mutant EGFR biochemical activity assay (HTRF)
# Sequence of EGFR L792H (P00533 25-1210 L792H): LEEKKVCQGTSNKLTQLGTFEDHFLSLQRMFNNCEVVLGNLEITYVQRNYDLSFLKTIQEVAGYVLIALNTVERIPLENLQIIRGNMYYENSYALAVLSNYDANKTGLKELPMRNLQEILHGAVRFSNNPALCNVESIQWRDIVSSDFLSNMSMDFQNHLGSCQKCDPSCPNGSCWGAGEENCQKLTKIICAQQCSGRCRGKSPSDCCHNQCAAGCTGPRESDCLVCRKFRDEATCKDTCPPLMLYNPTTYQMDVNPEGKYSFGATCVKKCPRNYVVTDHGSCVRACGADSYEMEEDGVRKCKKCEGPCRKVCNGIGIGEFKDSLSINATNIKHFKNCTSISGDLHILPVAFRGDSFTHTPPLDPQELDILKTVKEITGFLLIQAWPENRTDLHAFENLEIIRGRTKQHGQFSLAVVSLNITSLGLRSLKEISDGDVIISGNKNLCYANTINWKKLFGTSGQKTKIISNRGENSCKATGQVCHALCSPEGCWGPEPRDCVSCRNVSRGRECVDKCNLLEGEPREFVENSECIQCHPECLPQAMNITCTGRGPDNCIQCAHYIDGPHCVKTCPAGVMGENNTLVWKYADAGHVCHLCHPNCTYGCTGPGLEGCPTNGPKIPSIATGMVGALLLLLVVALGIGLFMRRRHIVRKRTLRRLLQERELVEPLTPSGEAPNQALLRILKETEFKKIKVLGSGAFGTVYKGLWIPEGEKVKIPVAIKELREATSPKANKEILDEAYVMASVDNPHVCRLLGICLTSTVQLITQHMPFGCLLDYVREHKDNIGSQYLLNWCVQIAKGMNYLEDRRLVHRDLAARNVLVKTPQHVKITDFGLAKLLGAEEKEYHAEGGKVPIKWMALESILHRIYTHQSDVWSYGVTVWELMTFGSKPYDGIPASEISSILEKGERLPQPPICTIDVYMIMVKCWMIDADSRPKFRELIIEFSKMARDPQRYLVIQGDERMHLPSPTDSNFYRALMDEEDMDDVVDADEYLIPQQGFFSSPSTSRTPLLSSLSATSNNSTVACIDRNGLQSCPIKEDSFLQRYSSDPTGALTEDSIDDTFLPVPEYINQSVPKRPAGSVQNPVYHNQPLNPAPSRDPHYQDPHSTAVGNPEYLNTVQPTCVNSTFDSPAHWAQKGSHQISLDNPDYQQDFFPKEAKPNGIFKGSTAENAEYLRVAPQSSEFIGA
# Procedure: as §2, §3, §4
# EGFR Del19 = EGFR Del19 (Homo sapiens, UniProt P00533); test: Mutant EGFR biochemical activity assay (HTRF)
# Procedure: as §2, §3, §4
# EGFR L792F = EGFR L792F (Homo sapiens, UniProt P00533, L792F); test: Mutant EGFR biochemical activity assay (HTRF)
# Procedure: as §2, §3, §4
# EGFR T790M/L858R = EGFR T790M/L858R (Homo sapiens, UniProt P00533, L858R/T790M); test: Mutant EGFR biochemical activity assay (HTRF)
# Sequence of EGFR T790M/L858R (P00533 25-1210 T790M/L858R): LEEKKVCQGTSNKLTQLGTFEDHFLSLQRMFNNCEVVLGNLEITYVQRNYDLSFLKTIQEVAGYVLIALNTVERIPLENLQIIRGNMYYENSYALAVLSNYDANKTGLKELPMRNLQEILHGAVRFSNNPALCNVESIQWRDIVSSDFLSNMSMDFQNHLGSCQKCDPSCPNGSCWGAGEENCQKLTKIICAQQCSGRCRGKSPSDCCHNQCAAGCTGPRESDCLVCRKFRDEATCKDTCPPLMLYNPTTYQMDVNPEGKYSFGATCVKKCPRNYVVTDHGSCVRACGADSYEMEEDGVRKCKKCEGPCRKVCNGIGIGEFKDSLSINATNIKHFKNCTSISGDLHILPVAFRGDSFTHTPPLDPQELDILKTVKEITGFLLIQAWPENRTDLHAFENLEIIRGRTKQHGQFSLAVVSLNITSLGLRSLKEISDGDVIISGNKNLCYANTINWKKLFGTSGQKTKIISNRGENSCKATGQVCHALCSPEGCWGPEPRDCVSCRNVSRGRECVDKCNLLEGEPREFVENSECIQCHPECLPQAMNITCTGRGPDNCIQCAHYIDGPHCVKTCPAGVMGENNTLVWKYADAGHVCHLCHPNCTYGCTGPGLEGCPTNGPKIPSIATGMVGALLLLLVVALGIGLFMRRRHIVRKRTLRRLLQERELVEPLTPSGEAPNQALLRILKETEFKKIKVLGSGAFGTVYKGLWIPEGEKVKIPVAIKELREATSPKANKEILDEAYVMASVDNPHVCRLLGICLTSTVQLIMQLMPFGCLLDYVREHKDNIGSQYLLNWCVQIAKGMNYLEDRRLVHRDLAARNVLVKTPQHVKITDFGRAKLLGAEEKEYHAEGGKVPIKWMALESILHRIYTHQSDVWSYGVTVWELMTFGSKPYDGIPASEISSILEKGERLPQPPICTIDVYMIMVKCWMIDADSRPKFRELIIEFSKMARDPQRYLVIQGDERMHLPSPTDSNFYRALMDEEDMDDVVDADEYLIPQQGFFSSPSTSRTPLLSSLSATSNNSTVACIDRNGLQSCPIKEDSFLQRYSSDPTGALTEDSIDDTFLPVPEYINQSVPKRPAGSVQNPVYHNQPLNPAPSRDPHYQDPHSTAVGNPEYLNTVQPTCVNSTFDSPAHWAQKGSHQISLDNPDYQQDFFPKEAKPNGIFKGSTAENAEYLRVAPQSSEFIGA
# Procedure: as §2, §3, §4
# [3] = system: H1975 (EGFR L858R/T790M, NSCLC); test: Cell proliferation assay (MTT); format: cell-based; settings: Homo sapiens, NCI-H1975, 72 h, three days
# Procedure: as §1
# [4] = molecular target: Ba/F3_EGFR V769_D770insASV (Homo sapiens, UniProt P00533, DUP767-769, cells depend on it); test: Cell proliferation assay (MTT); format: cell-based; settings: three days, read-out: Ba/F3_EGFR V769_D770insASV IC50
# Procedure: as §1
# [5] = molecular target: Ba/F3_EGFR D770_N771insSVD (Homo sapiens, UniProt P00533, DUP768-770, cells depend on it); test: Cell proliferation assay (MTT); format: cell-based; settings: three days, read-out: Ba/F3_EGFR D770_N771insSVD IC50
# Procedure: as §1
# HER4 = HER4 (Homo sapiens, UniProt Q15303); test: HER4 biochemical activity assay (HTRF)
# Sequence of HER4 (Q15303 26-1308): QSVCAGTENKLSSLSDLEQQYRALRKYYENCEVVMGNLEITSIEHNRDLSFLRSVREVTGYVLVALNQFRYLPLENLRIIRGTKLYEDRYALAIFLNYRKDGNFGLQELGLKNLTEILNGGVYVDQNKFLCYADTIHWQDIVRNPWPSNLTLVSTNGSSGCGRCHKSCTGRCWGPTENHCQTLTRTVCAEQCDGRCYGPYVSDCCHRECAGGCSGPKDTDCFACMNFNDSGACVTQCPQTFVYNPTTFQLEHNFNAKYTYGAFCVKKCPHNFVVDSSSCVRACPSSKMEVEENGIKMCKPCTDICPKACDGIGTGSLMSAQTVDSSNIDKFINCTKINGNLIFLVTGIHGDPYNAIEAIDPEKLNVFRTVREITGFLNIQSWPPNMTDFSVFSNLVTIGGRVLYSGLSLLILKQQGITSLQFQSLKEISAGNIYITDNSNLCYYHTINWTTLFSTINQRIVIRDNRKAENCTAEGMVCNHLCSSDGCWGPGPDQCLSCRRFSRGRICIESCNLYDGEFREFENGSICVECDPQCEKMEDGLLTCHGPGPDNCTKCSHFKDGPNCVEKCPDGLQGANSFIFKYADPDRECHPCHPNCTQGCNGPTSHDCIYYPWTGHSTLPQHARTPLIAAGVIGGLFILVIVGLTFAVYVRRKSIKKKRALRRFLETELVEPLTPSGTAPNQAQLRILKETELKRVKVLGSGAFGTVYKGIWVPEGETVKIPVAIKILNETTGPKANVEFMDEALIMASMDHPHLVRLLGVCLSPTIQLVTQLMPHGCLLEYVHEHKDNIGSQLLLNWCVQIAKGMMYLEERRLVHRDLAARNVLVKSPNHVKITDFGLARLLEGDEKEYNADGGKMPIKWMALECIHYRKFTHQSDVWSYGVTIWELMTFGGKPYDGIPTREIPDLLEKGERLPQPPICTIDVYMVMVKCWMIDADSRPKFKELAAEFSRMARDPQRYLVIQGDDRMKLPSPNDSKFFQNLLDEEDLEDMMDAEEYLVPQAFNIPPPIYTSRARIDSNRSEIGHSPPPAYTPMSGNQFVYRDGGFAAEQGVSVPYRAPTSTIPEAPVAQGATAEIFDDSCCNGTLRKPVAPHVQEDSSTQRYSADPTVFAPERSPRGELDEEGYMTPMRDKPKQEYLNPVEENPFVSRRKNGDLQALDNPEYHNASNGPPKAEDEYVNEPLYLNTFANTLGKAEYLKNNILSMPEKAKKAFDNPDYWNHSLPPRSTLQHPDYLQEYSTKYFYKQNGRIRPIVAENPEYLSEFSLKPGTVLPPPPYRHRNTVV
# Procedure: as §2, §3, §4
# HER2 = HER2 (Homo sapiens, UniProt P04626); test: HER2 biochemical activity assay (HTRF)
# Procedure: as §2, §3, §4
# LU-01-0426 = test: Patient derived xenograft (PDX) mouse model; format: in vivo, nude mice; settings: LU-01-0426, 0.5 mg/kg poziotinib
# Procedure: (§5) Assay 3. In vivo studies in cell line-derived (CDX) and patient derived xenografts (PDX) mouse models
# (§6) Cells (H1975) or tissue pieces (LU0493 and LU0426) were implanted subcutaneously into the left armpit of nude mice. When the average tumor volume reached 100-150 mm^3, mice were randomized by tumor volume and treated with vehicle, compound 1 or poziotinib respectively. Tumor volume and body weight were measured twice per week. Mice were sacrificed on day 21 or day 28, and tumor volume and terminal body weight were recorded. The relative tumor volume, percent of treatment/control values and tumor growth inhibition were calculated and statistics was performed.
# (§7) Terminal body weight changes were calculated as percentage of body changes from day 1 to day 21.
# LU-01-0493 = test: Patient derived xenograft (PDX) mouse model; format: in vivo, nude mice; settings: LU-01-0493, 0.5 mg/kg poziotinib
# Procedure: as §5, §6, §7
# LU-0387 = test: Xenograft mouse model LU-0387; format: in vivo, nude mice; settings: LU-0387, 0.5 mg/kg poziotinib
smiles,measurement,setting,value
"C=CC(=O)Nc1cc(Nc2nccc(-n3c(=O)n4c5c(cccc53)CCC4)n2)c(OC)cc1N(C)CCN(C)C [Compound 2, N-(2-((2-(dimethylamino)ethyl)(methyl)amino)-4-methoxy-5-((4-(2-oxo-5,6-dihydro-4H-imidazo[4,5,1-ij]quinolin-1(2H)-yl)pyrimidin-2-yl)amino)phenyl)acrylamide]",IC50,EGFR-WT,1.23 nM
same,IC50,EGFR D770-N771insNPG,0.0815 nM
same,IC50,EGFR A763_Y764insFHEA,0.299 nM
same,IC50,EGFR T790M,0.0509 nM
same,IC50,[2],0.0567 nM
same,IC50,EGFR D770GY,0.276 nM
same,IC50,EGFR L792H,46.9 nM
same,IC50,EGFR Del19,0.107 nM
same,IC50,EGFR L792F,1.65 nM
same,IC50,EGFR T790M/L858R,0.0724 nM
same,IC50,[1],71.1 nM
same,IC50,[3],23 nM
same,GI50,[4],23.8 nM
same,GI50,[5],9.15 nM
same,IC50,HER4,1.35 nM
same,IC50,HER2,47 nM
"C=CC(=O)Nc1cc(Nc2nccc(-n3c(=O)n4c5c(cc(F)cc53)CCC4)n2)c(OC)nc1N(C)CCN(C)C [Compound 3, N-(2-((2-(dimethylamino)ethyl)(methyl)amino)-5-((4-(8-fluoro-2-oxo-5,6-dihydro-4H-imidazo[4,5,1-ij]quinolin-1(2H)-yl)pyrimidin-2-yl)amino)-6-methoxypyridin-3-yl)acrylamide]",IC50,[1],389 nM
same,IC50,[3],16 nM
same,GI50,[4],13.9 nM
same,GI50,[5],3.18 nM
"C=CC(=O)Nc1cc(Nc2nccc(-n3c(=O)n4c5c(cccc53)CCC4)n2)c(OC)nc1N(C)CCN(C)C [Compound 4, N-(2-((2-(dimethylamino)ethyl)(methyl)amino)-6-methoxy-5-((4-(2-oxo-5,6-dihydro-4H-imidazo[4,5,1-ij]quinolin-1(2H)-yl)pyrimidin-2-yl)amino)pyridin-3-yl)acrylamide]",IC50,EGFR-WT,0.552 nM
same,IC50,EGFR D770-N771insNPG,0.0554 nM
same,IC50,EGFR A763_Y764insFHEA,0.143 nM
same,IC50,EGFR T790M,0.0573 nM
same,IC50,[2],0.0514 nM
same,IC50,EGFR D770GY,0.13 nM
same,IC50,EGFR L792H,15.6 nM
same,IC50,EGFR Del19,0.233 nM
same,IC50,EGFR L792F,0.415 nM
same,IC50,EGFR T790M/L858R,0.0841 nM
same,IC50,[1],154 nM
same,IC50,[3],12.4 nM
same,GI50,[4],15.7 nM
same,GI50,[5],5.08 nM
same,IC50,HER4,0.694 nM
same,IC50,HER2,34.6 nM
"C=CC(=O)Nc1cc(Nc2nccc(-n3c(=O)n4c5c(cc(F)cc53)CCC4)n2)c(OCC(F)(F)F)nc1N(C)CCN(C)C [Compound 5, N-(2-((2-(dimethylamino)ethyl)(methyl)amino)-5-((4-(8-fluoro-2-oxo-5,6-dihydro-4H-imidazo[4,5,1-ij]quinolin-1(2H)-yl)pyrimidin-2-yl)amino)-6-(2,2,2-trifluoroethoxy)pyridin-3-yl)acrylamide]",IC50,[1],154 nM
same,IC50,[3],15.8 nM
same,GI50,[4],14.9 nM
same,GI50,[5],5.07 nM
"C=CC(=O)Nc1cc(Nc2nccc(-n3c(=O)n4c5c(cccc53)CCC4)n2)c(OCC(F)(F)F)nc1N(C)CCN(C)C [Compound 6, N-(2-((2-(dimethylamino)ethyl)(methyl)amino)-5-((4-(2-oxo-5,6-dihydro-4H-imidazo[4,5,1-ij]quinolin-1(2H)-yl)pyrimidin-2-yl)amino)-6-(2,2,2-trifluoroethoxy)pyridin-3-yl)acrylamide]",IC50,EGFR-WT,0.451 nM
same,IC50,EGFR D770-N771insNPG,0.0688 nM
same,IC50,EGFR A763_Y764insFHEA,0.149 nM
same,IC50,EGFR T790M,0.0656 nM
same,IC50,[2],0.0834 nM
same,IC50,EGFR D770GY,0.0489 nM
same,IC50,EGFR L792H,> 100 nM
same,IC50,EGFR Del19,0.14 nM
same,IC50,EGFR L792F,4.09 nM
same,IC50,EGFR T790M/L858R,0.0865 nM
same,IC50,[1],140 nM
same,IC50,[3],14.8 nM
same,GI50,[4],13.3 nM
same,GI50,[5],3.47 nM
same,IC50,HER4,0.725 nM
same,IC50,HER2,25.1 nM
"C=CC(=O)Nc1cc(Nc2nccc(-n3c(=O)n4c5c(cc(F)cc53)CCC4)n2)c(OC)cc1N(C)CCN1CCC1 [Compound 25, N-(2-((2-(azetidin-1-yl)ethyl)(methyl)amino)-5-((4-(8-fluoro-2-oxo-5,6-dihydro-4H-imidazo[4,5,1-ij]quinolin-1(2H)-yl)pyrimidin-2-yl)amino)-4-methoxyphenyl)acrylamide]",IC50,[1],386 nM
same,IC50,[3],25.4 nM
same,GI50,[4],23.4 nM
same,GI50,[5],12.4 nM
"[2H]C([2H])([2H])N(C)CCN(C)c1cc(OC)c(Nc2nccc(-n3c(=O)n4c5c(cc(F)cc53)CCC4)n2)cc1NC(=O)C=C [Compound 28, N-(5-((4-(8-fluoro-2-oxo-5,6-dihydro-4H-imidazo[4,5,1-ij]quinolin-1(2H)-yl)pyrimidin-2-yl)amino)-4-methoxy-2-(methyl(2-(methyl(methyl-d3)amino)ethyl)amino)phenyl) acrylamide]",IC50,[1],256 nM
same,IC50,[3],32.2 nM
same,GI50,[4],14.3 nM
same,GI50,[5],5.13 nM
"[2H]C([2H])([2H])N(CCN(C)c1cc(OC)c(Nc2nccc(-n3c(=O)n4c5c(cc(F)cc53)CCC4)n2)cc1NC(=O)C=C)C([2H])([2H])[2H] [Compound 29, N-(2-((2-(bis(methyl-d3)amino)ethyl)(methyl)amino)-5-((4-(8-fluoro-2-oxo-5,6-dihydro-4H-imidazo[4,5,1-ij]quinolin-1(2H)-yl)pyrimidin-2-yl)amino)-4-methoxyphenyl)acrylamide]",IC50,[1],188 nM
same,IC50,[3],21 nM
same,GI50,[4],23.4 nM
same,GI50,[5],9.03 nM
"[2H]C([2H])([2H])Oc1cc(N(C)CCN(C)C)c(NC(=O)C=C)cc1Nc1nccc(-n2c(=O)n3c4c(cc(F)cc42)CCC3)n1 [Compound 42, N-(2-((2-(dimethylamino)ethyl)(methyl)amino)-5-((4-(8-fluoro-2-oxo-5,6-dihydro-4H-imidazo[4,5,1-ij]quinolin-1(2H)-yl)pyrimidin-2-yl)amino)-4-(methoxy-d3)phenyl)acrylamide]",IC50,[1],301 nM
same,IC50,[3],14.6 nM
same,GI50,[4],13.9 nM
same,GI50,[5],5.61 nM
"[2H]C([2H])([2H])Oc1cc(N(C)CCN(C)C([2H])([2H])[2H])c(NC(=O)C=C)cc1Nc1nccc(-n2c(=O)n3c4c(cc(F)cc42)CCC3)n1 [Compound 43, N-(5-((4-(8-fluoro-2-oxo-5,6-dihydro-4H-imidazo[4,5,1-ij]quinolin-1(2H)-yl)pyrimidin-2-yl)amino)-4-(methoxy-d3)-2-(methyl(2-(methyl(methyl-d3)amino)ethyl)amino)phenyl) acrylamide]",IC50,[1],254 nM
same,IC50,[3],19.8 nM
same,GI50,[4],16.6 nM
same,GI50,[5],6.65 nM
"C=CC(=O)N1CCC(Oc2cc3c(Nc4ccc(Cl)c(Cl)c4F)ncnc3cc2OC)CC1 [poziotinib, reference compound]",TGI (%),LU-01-0426,91.3%
same,Terminal body weight changes (%),LU-01-0426; day 1 to day 21,−7.4%
same,TGI (%),LU-01-0493,56.8%
same,Terminal body weight changes (%),LU-01-0493; day 1 to day 21,−12.4%
same,TGI (%),LU-0387,74.49%
same,Terminal body weight changes (%),LU-0387; day 1 to day 21,0%
